Data taken from US12612420B2, “Arginase inhibitors and methods of use thereof” (Molecure S.A., priority 2020, dated 2026).
Where a name gives a salt, the structure may show the parent alone.

What was measured:
[1] = target: T1, recombinant human arginase 2 (hARG2) (Homo sapiens, UniProt P78540); assay: Human arginase inhibition assay (colorimetric urea detection), arginase 2; format: biochemical; details: IC50 class; hydrochloride salts; 1 h at 37° C., pH 7.4, 20 mM L-arginine, 200 μM MnCl2; read-out: Activity Class (ARG II)
T1 construct: made in house; host or cells: E. coli
T1 sequence (P78540 23-354): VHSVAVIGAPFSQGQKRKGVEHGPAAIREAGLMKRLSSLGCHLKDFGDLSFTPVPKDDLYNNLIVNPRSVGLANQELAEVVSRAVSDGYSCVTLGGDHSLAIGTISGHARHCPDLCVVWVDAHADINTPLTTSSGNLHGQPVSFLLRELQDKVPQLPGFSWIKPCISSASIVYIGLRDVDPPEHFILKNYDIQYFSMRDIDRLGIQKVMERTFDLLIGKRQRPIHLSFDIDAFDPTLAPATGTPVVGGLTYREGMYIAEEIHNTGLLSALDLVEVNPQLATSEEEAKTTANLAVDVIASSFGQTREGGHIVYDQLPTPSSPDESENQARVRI
Procedure: (§1) Human Arginase Inhibition Assay
(§2) The inhibitory activities of the compounds of the invention were assessed using recombinant human arginases 1 and 2. Both enzymes were biosynthesized using a prokaryotic expression system (E. coli) and purified by fast protein liquid chromatography (FPLC). The compounds were screened in 96-well plates at the total reaction volume of 100 μL. Briefly, recombinant enzymes were incubated with the tested compounds for 1 h at 37° C. in the reaction buffer (100 mM sodium phosphate buffer, 130 mM NaCl, 1 mg/mL BSA, pH 7.4) containing substrate (L-arginine hydrochloride, 10 mM for hARG1 and 20 mM for hARG2) and cofactor (200 μM MnCl2). The assay is based on the detection of urea, which is generated during the conversion of L-arginine into L-omithine catalyzed by ARG1 or ARG2 (Baggio et al. J Pharmacol. Exp. Ther. 1999, 290, 1409-1416). The colorimetrically detectable product was developed by adding a mixture of reagent A (4 mM oPA, 50 mM boric acid, 1 M sulfuric acid, 0.03% Brij-35) and reagent B (4 mM NED, 50 mM boric acid, 1 M sulfuric acid, 0.03% Brij-35) in equal proportions. The absorbance for each well was measured at 515 nm and the enzyme inhibition was calculated. The urea production in the absence of any tested compound was considered as maximal enzyme activity. The absorbance at the absence of arginase (background) was subtracted from all the values. The normalized values were analyzed using GraphPad Prism 7.0 software by plotting inhibition curves and determining the IC50 values.
(§3) The inhibitory activity classes of the hydrochloride salts of the exemplary compounds according to the invention are presented in Table 1

[2] = target: T2, recombinant human arginase 1 (hARG1) (Homo sapiens, UniProt P05089); assay: Human arginase inhibition assay (colorimetric urea detection), arginase 1; format: biochemical; details: IC50 class; hydrochloride salts; 1 h at 37° C., pH 7.4, 10 mM L-arginine, 200 μM MnCl2; read-out: Activity Class (ARG I)
T2 construct: made in house; host or cells: E. coli
T2 sequence (P05089 1-322): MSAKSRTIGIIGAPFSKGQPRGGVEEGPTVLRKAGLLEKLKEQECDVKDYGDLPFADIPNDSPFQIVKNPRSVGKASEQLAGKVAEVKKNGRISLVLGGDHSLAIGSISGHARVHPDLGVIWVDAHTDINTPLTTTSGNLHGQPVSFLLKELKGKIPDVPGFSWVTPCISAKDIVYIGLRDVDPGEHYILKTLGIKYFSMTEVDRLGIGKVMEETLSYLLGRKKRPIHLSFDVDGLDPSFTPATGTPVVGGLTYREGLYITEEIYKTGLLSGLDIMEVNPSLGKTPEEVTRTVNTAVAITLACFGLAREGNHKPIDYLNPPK
Procedure: as §1, §2, §3

| SMILES | IC50 [1] [nM] | IC50 [2] [nM] |
| --- | --- | --- |
| N[C@@H](CO)C(=O)NC[C@@H]1CC[C@@H](CCB(O)O)C[C@]1(N)C(=O)O [Example 7, (1R,2S,5R)-1-Amino-2-(((S)-2-amino-3-hydroxypropanamido)methyl)-5-(2-boronoethyl)cyclohexane-1-carboxylic acid dihydrochloride] | > 300 | 100 to 199 |
| C[C@@H](O)[C@H](N)C(=O)NC[C@@H]1CC[C@@H](CCB(O)O)C[C@]1(N)C(=O)O [Example 19, (1R,2S,5R)-1-Amino-2-(((2S,3R)-2-amino-3-hydroxybutanamido)methyl)-5-(2-boronoethyl)cyclohexane-1-carboxylic acid dihydrochloride] | > 300 | 100 to 199 |
| CCC[C@H](N)C(=O)NC[C@@H]1CC[C@@H](CCB(O)O)C[C@]1(N)C(=O)O [Example 20, (1R,2S,5R)-1-Amino-2-(((S)-2-aminopentanamido)methyl)-5-(2-boronoethyl)cyclohexane-1-carboxylic acid dihydrochloride] | > 300 | 1 to 99 |
| CC(C)[C@@](C)(N)C(=O)NC[C@@H]1CC[C@@H](CCB(O)O)C[C@]1(N)C(=O)O [Example 21, (1R,2S,5R)-1-Amino-2-((2-amino-2,3-dimethylbutanamido)methyl)-5-(2-boronoethyl)cyclohexane-1-carboxylic acid dihydrochloride] | > 300 | 200 to 299 |
| C[C@H](N)C(=O)N(C)C[C@@H]1CC[C@@H](CCB(O)O)C[C@]1(N)C(=O)O [Example 24, (1R,2S,5R)-1-Amino-2-(((S)-2-amino-N-methylpropanamido)methyl)-5-(2-boronoethyl)cyclohexane-1-carboxylic acid dihydrochloride] | > 300 | 100 to 199 |
| N[C@@H](CS)C(=O)NC[C@@H]1CC[C@@H](CCB(O)O)C[C@]1(N)C(=O)O [Example 27, (1R,2S,5R)-1-Amino-2-(((R)-2-amino-3-mercaptopropanamido)methyl)-5-(2-boronoethyl)cyclohexane-1-carboxylic acid dihydrochloride] | > 300 | 200 to 299 |
| N[C@@H](CC(=O)O)C(=O)NC[C@@H]1CC[C@@H](CCB(O)O)C[C@]1(N)C(=O)O [Example 29, (1R,2S,5R)-1-Amino-2-(((S)-2-amino-3-carboxypropanamido)methyl)-5-(2-boronoethyl)cyclohexane-1-carboxylic acid dihydrochloride] | > 300 | > 300 |
| N[C@@H](CCC(=O)O)C(=O)NC[C@@H]1CC[C@@H](CCB(O)O)C[C@]1(N)C(=O)O [Example 30, (1R,2S,5R)-1-Amino-2-(((S)-2-amino-4-carboxybutanamido)methyl)-5-(2-boronoethyl)cyclohexane-1-carboxylic acid dihydrochloride] | > 300 | > 300 |
| CNCC(=O)NC[C@@H]1CC[C@@H](CCB(O)O)C[C@]1(N)C(=O)O [Example 31, (1R,2S,5R)-1-Amino-5-(2-boronoethyl)-2-((2-(methylamino)acetamido)methyl)cyclohexane-1-carboxylic acid dihydrochloride] | > 300 | 100 to 199 |
| COC(=O)[C@@]1(N)C[C@H](CCB(O)O)CC[C@H]1CNC(=O)[C@@H](N)C(C)C [Example 32, (2-((1R,3R,4S)-3-Amino-4-(((S)-2-amino-3-methylbutanamido)methyl)-3-(methoxycarbonyl)cyclohexyl)ethyl)boronic acid dihydrochloride] | > 300 | > 300 |

Next, values leading:

| IC50 [1] [nM] | IC50 [2] [nM] | SMILES |
| --- | --- | --- |
| > 300 | 100 to 199 | C[C@H](N)C(=O)NC[C@@H]1CC[C@@H](CCB(O)O)C[C@]1(N)C(=O)O [Example 1, (1R,2S,5R)-1-Amino-2-(((S)-2-aminopropanamido)methyl)-5-(2-boronoethyl)cyclohexane-1-carboxylic acid dihydrochloride] |
| > 300 | 100 to 199 | N[C@@H](Cc1c[nH]cn1)C(=O)NC[C@@H]1CC[C@@H](CCB(O)O)C[C@]1(N)C(=O)O [Example 8, (1R,2S,5R)-1-Amino-2-(((S)-2-amino-3-(1H-imidazol-4-yl)propanamido)methyl)-5-(2-boronoethyl)cyclohexane-1-carboxylic acid trihydrochloride] |
| 100 to 199 | 1 to 99 | N[C@H](C(=O)NC[C@@H]1CC[C@@H](CCB(O)O)C[C@]1(N)C(=O)O)C1CCCC1 [Example 11, (1R,2S,5R)-1-Amino-2-(((S)-2-amino-2-cyclopentylacetamido)methyl)-5-(2-boronoethyl)cyclohexane-1-carboxylic acid dihydrochloride] |
| > 300 | 200 to 299 | N[C@@H](Cc1ccc(O)cc1)C(=O)NC[C@@H]1CC[C@@H](CCB(O)O)C[C@]1(N)C(=O)O [Example 14, (1R,2S,5R)-1-Amino-2-(((S)-2-amino-3-(4-hydroxyphenyl)propanamido)methyl)-5-(2-boronoethyl)cyclohexane-1-carboxylic acid dihydrochloride] |
| > 300 | 200 to 299 | NC(=O)C[C@H](N)C(=O)NC[C@@H]1CC[C@@H](CCB(O)O)C[C@]1(N)C(=O)O [Example 15, (1R,2S,5R)-1-Amino-5-(2-boronoethyl)-2-(((S)-2,4-diamino-4-oxobutanamido)methyl)cyclohexane-1-carboxylic acid dihydrochloride] |
| > 300 | 100 to 199 | CC(C)(O)[C@H](N)C(=O)NC[C@@H]1CC[C@@H](CCB(O)O)C[C@]1(N)C(=O)O [Example 16, (1R,2S,5R)-1-Amino-2-(((S)-2-amino-3-hydroxy-3-methylbutanamido)methyl)-5-(2-boronoethyl)cyclohexane-1-carboxylic acid dihydrochloride] |
| > 300 | 100 to 199 | N[C@@H](Cc1c[nH]c2ccccc12)C(=O)NC[C@@H]1CC[C@@H](CCB(O)O)C[C@]1(N)C(=O)O [Example 18, (1R,2S,5R)-1-Amino-2-(((S)-2-amino-3-(1H-indol-3-yl)propanamido)methyl)-5-(2-boronoethyl)cyclohexane-1-carboxylic acid dihydrochloride] |
| > 300 | 1 to 99 | C[C@@H](N)C(=O)NC[C@@H]1CC[C@@H](CCB(O)O)C[C@]1(N)C(=O)O [Example 22, (1R,2S,5R)-1-Amino-2-(((R)-2-aminopropanamido)methyl)-5-(2-boronoethyl)cyclohexane-1-carboxylic acid dihydrochloride] |
| > 300 | 1 to 99 | CC(C)[C@@H](N)C(=O)NC[C@@H]1CC[C@@H](CCB(O)O)C[C@]1(N)C(=O)O [Example 23, (1R,2S,5R)-1-Amino-2-(((R)-2-amino-3-methylbutanamido)methyl)-5-(2-boronoethyl)cyclohexane-1-carboxylic acid dihydrochloride] |
| > 300 | 1 to 99 | CC(C)[C@H](N)C(=O)N(C)C[C@@H]1CC[C@@H](CCB(O)O)C[C@]1(N)C(=O)O [Example 25, (1R,2S,5R)-1-Amino-2-(((S)-2-amino-N,3-dimethylbutanamido)methyl)-5-(2-boronoethyl)cyclohexane-1-carboxylic acid dihydrochloride] |
| > 300 | 100 to 199 | Cn1cc(C[C@@H](N)C(=O)NC[C@@H]2CC[C@@H](CCB(O)O)C[C@]2(N)C(=O)O)c2ccccc21 [Example 26, (1R,2S,5R)-1-Amino-2-(((R)-2-amino-3-(1-methyl-1H-indol-3-yl)propanamido)methyl)-5-(2-boronoethyl)cyclohexane-1-carboxylic acid dihydrochloride] |
| > 300 | 100 to 199 | NC(=O)CC[C@H](N)C(=O)NC[C@@H]1CC[C@@H](CCB(O)O)C[C@]1(N)C(=O)O [Example 28, (1R,2S,5R)-1-Amino-5-(2-boronoethyl)-2-(((S)-2,5-diamino-5-oxopentanamido)methyl)cyclohexane-1-carboxylic acid dihydrochloride] |
